# Structures can show the parent of a compound that is named as a salt.
# Assays:
# Gram-positive bacteria = conditions: background statement; cited from earlier work
# [1] = Solubility observed on preparing formulations; type: physicochemical; conditions: pH 5.5 versus pH 5.0
# [2] = 21 °C and standard pressure; cited from earlier work
smiles,measurement,setting,value
CN[C@H]1C(=O)N[C@@H]2Cc3ccc(cc3)Oc3cc4cc(c3O[C@@H]3O[C@H](C(=O)O)[C@@H](O)[C@H](O)[C@H]3NC(=O)CCCCCCCCC(C)C)Oc3ccc(cc3Cl)[C@@H](O)[C@@H]3NC(=O)[C@H](NC(=O)[C@@H]4NC(=O)[C@@H](NC2=O)c2cc(cc(O)c2Cl)Oc2cc1ccc2O)c1ccc(O)c(c1)-c1c(O[C@H]2O[C@H](CO)[C@@H](O)[C@H](O)[C@@H]2O)cc(O)cc1[C@@H](C(=O)NCCCN(C)C)NC3=O [Dalbavancin],Antibiotic activity,Gram-positive bacteria,strong antibiotic activity
CN[C@H]1C(=O)N[C@@H]2Cc3ccc(cc3)Oc3cc4cc(c3O[C@@H]3O[C@H](C(=O)O)[C@@H](O)[C@H](O)[C@H]3NC(=O)CCCCCCCCC(C)C)Oc3ccc(cc3Cl)[C@@H](O)[C@@H]3NC(=O)[C@H](NC(=O)[C@@H]4NC(=O)[C@@H](NC2=O)c2cc(cc(O)c2Cl)Oc2cc1ccc2O)c1ccc(O)c(c1)-c1c(O[C@H]2O[C@H](CO)[C@@H](O)[C@H](O)[C@@H]2O)cc(O)cc1[C@@H](C(=O)NCCCN(C)C)NC3=O [dalbavancin hydrochloride],Solubility,[1],reduced solubility
CC(O)C(=O)O (stereo not drawn) [lactic acid],pKa,[2],3.7
